# Reference: article PMC4917951, “Designing, construction and characterization of genetically encoded FRET-based nanosensor for real time monitoring of lysine flux in living cells” (Journal of Nanobiotechnology, 2016)
# Key:
# [1] = biological target: T1, FLIPK sensor protein (CFP-LAO-YFP) (Salmonella typhimurium, UniProt P02911); test: In vitro ligand specificity of FLIPK (FRET ratio with amino acids); format: binding, Salmonella enterica serovar typhimurium LT2; details: amino acids at 1 and 10 mM, purified FLIPK
# T1 construct: The first 22 amino acids (signal peptides) were removed by the help of a SignalP 4.1 server; (His)6 tag (from pRSET-B) (N); made in house; host or cells: E. coli BL21 (DE3), pRSET-B vector
# Description: (§1) Specificity of the sensor protein was measured by using five amino acids, arginine, leucine, lysine, ornithine and histidine at three different concentrations i.e. 0, 1.0 and 10 mM, each. FRET measurement was carried out by using a microplate reader. The excitation filter/slit used was 430 nm/20 nm and emission filters/slits for CFP and YFP were 485 nm/20 nm and 535 nm/25 nm, respectively. 180 µl of diluted sensor protein and 20 µl of substrate were taken in different well. Affinity of sensor protein was monitored by using different concentrations of lysine. All analysis was performed in 20 mM PBS buffer (pH 7.5).
# [2] = test system: E. coli BL21 (DE3) cells expressing FLIPK; test: In vivo FRET measurement in FLIPK-expressing bacterial cell suspension; format: cell-based; details: for change in FRET ratio of bacterial cell suspension (in vivo specificity): incubation with amino acids for 45 min
# Description: In vivo analysis was performed by following the earlier protocols. […] Cultures were incubated in Luria Bertoni broth in baffled Erlenmeyer flasks for 48 h in the dark at 20 °C temperature in shaker incubator and then stored at 4 °C for overnight to ensure the proper folding of the fluorescent proteins. Then starved of nitrogen in M9 medium at 37 °C for 2 h and adjusted to OD600 3.5 and kept in 20 mM PBS buffer solution at pH 7.5. Then 180 µl of cells were dispended in the wells of microplate. 20 μl of 10 mM lysine in nitrogen starved medium grown cells were added and the fluorophores emissions were recorded for 45 min. For monitoring the accumulation rates, the injection module of microplate reader was used. Similar procedure was followed with other amino acids (arginine, ornithine, histidine) to see the specificity of FLIPK.
# [3] = biological target: T2, FLIPK-14 µ (Salmonella enterica, UniProt P02911, F74A); test: In vitro FRET titration of purified CFP-LAO-YFP sensor with lysine in 20 mM PBS buffer pH 7.5, YFP/CFP (535/485 nm) emission ratio in a microplate reader, fitted to a simple binding isotherm.; details: n = 3
# T2 construct: gene argT; LAO without first 22 residues (signal peptide), CFP at N-terminus and YFP at C-terminus, N-terminal (His)6 tag, pRSET-B
# T2 sequence (P02911 23-260 F74A): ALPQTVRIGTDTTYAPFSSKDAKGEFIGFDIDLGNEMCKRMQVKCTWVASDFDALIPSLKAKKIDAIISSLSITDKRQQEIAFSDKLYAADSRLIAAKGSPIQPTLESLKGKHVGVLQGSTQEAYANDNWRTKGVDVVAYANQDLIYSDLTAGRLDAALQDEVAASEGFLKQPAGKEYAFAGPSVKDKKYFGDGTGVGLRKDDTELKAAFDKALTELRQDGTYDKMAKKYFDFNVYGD
# Description: as §1
# (§2) To determine the Kd of the FLIPK sensors, sensor protein was mixed with different concentrations of lysine in 20 mM PBS buffer (pH 7.5) and YFP/CFP ratio was recorded. By using the ratio change on ligand binding, binding constants (Kd) were determined by fitting ligand titration curve in a simple binding isotherm: S=(r-rapo)/(rsat-rapo)=L/Kd+L , where S is saturation; [L] is ligand concentration; r is ratio; rapo is ratio in the absence of ligand and rsat is ratio at saturation with ligand. All analyses were carried out with three independent protein preparations. FRET was used to characterize the sensor protein with various parameters. The FRET ratio was determined as fluorescence intensity at 535 nm (YFP) divided by fluorescence intensity at 485 nm (CFP).
# [4] = biological target: T3, FLIPK-142µ (Salmonella enterica, UniProt P02911, Y36A); test: as above; details: n = 3
# T3 construct: gene argT; LAO without first 22 residues (signal peptide), CFP at N-terminus and YFP at C-terminus, N-terminal (His)6 tag, pRSET-B
# T3 sequence (P02911 23-260 Y36A): T2 sequence (P02911 23-260 F74A)
# Description: as §1, §2
# [5] = biological target: T4, FLIPK-2 m (Salmonella enterica, UniProt P02911, D183I); test: as above; details: n = 3
# T4 construct: gene argT; LAO without first 22 residues (signal peptide), CFP at N-terminus and YFP at C-terminus, N-terminal (His)6 tag, pRSET-B
# T4 sequence (P02911 23-260 D183I): T2 sequence (P02911 23-260 F74A)
# Description: as §1, §2
# [6] = biological target: T5, FLIPK-306µ (Salmonella enterica, UniProt P02911, R99L); test: as above; details: n = 3
# T5 construct: gene argT; LAO without first 22 residues (signal peptide), CFP at N-terminus and YFP at C-terminus, N-terminal (His)6 tag, pRSET-B
# T5 sequence (P02911 23-260 R99L): T2 sequence (P02911 23-260 F74A)
# Description: as §1, §2
# [7] = biological target: T6, FLIPK-30µ (Salmonella enterica, UniProt P02911, S94A); test: as above; details: n = 3
# T6 construct: gene argT; LAO without first 22 residues (signal peptide), CFP at N-terminus and YFP at C-terminus, N-terminal (His)6 tag, pRSET-B
# T6 sequence (P02911 23-260 S94A): T2 sequence (P02911 23-260 F74A)
# Description: as §1, §2
# [8] = biological target: T7, FLIPK-97µ (FLIPK, WT) (Salmonella enterica, UniProt P02911); test: as above; details: n = 3
# T7 construct: gene argT; LAO without first 22 residues (signal peptide), CFP at N-terminus and YFP at C-terminus, N-terminal (His)6 tag, pRSET-B
# Description: as §1, §2
# [9] = test system: S. cerevisiae/URA3 strain BY4742 expressing FLIPK; test: Confocal FRET imaging of lysine uptake in FLIPK-expressing yeast cells; format: cell-based
# Description: For expression of FLIPK, S. cerevisiae/URA3 strain BY4742 was used as the eukaryotic host system. The yeast cells were grown and transformed by pYES-DEST-CFP-LAO-YFP vector in which the expression of CFP-LAO-YFP gene was controlled by GAL1 promoter. The transformed yeast cells were grown for 3–5 days in Synthetic Defined (SD)-growth and 1 % galactose as inducer. Imaging of expressed yeast cells were performed on confocal microscope (Leica DMRE) equipped with a confocal head TCS-SPE (Leica, Wetzlar, Germany). The yeast cells were fixed on glass slides by using medical adhesive rinsed with the growth medium and covered by a cover slip. To measure the lysine in yeast cells, dual emission intensity ratio was recorded by using LAS-AF software (Leica, Wetzlar, Germany) with 436 nm/20 nm excitation, two emission filters i.e. 480 nm/40 nm for CFP and 535/30 nm for YFP. For recording the data, FRET sensitized emission tool without background subtraction of the Leica confocal software. The data was further processed by using Adobe Photoshop. Images of single cell and multiple cells were captured by selecting the region of interest (ROI). Similar procedure was followed for the imaging of expressed bacterial cells.
# [10] = biological target: lysine binding periplasmic protein (LAO); design: method as in PMID 1400387; details: read-out: Kd for lysine by equilibrium dialysis; cited from earlier work
smiles,measurement,setting,value
NCCC[C@H](N)C(=O)O [ornithine],change in FRET ratio of FLIPK (ligand specificity),[1],non-significant change in FRET ratio
same,change in FRET ratio of bacterial cell suspension (in vivo specificity),[2],did not change the FRET ratio
"NCCCC[C@H](N)C(=O)O [lysine, L-lysine]",Kd,[3],14 µM
same,Kd,[4],142 µM
same,Kd,[5],2000 µM
same,Kd,[6],306 µM
same,Kd,[7],30 µM
same,Kd,[8],97 µM
NCCCC[C@H](N)C(=O)O [lysine],change in FRET ratio of FLIPK (ligand specificity),[1],significant increase in the FRET ratio
same,time after which FRET ratio increased distinctly,[2]; 10 mM lysine added externally,5 min
same,time at which FRET ratio of the cell suspensions saturated,"[2]; 10 mM lysine added externally, 20 mM PBS buffer",45 min
same,time within which uptake of lysine saturated,[2]; at 10 mM,40 to 45 min
same,change in FRET ratio of bacterial cell suspension (in vivo specificity),[2],major change
same,increase of 535 nm/485 nm emission intensity ratio,"[9]; 100 mM extracellular lysine, single yeast cell",2.0
same,time up to which 535 nm/485 nm ratio increased before saturation,[9]; after addition of lysine,255 s
same,Kd,[10],0.015 µM
N=C(N)NCCC[C@H](N)C(=O)O [arginine],change in FRET ratio of FLIPK (ligand specificity),[1],non-significant change in FRET ratio
same,change in FRET ratio of bacterial cell suspension (in vivo specificity),[2],did not change the FRET ratio
CC(C)C[C@H](N)C(=O)O [leucine],change in FRET ratio of FLIPK (ligand specificity),[1],non-significant change in FRET ratio
N[C@@H](Cc1c[nH]cn1)C(=O)O [histidine],change in FRET ratio of FLIPK (ligand specificity),[1],non-significant change in FRET ratio
same,change in FRET ratio of bacterial cell suspension (in vivo specificity),[2],did not change the FRET ratio
